# Assay results taken from patent US11214803B2, “Modulators of YAP1 expression” (Ionis Pharmaceuticals, Inc., priority 2019, dated 2022).
# Strand notation (5' to 3'): a small letter for the sugar, then the base; units joined by * are phosphorothioate-linked, units joined directly phosphodiester-linked; [ ] holds rarer units or linkages, { } end groups; capitals alone tell only the bases. k = constrained ethyl (cEt); [5mC] = 5-methylcytosine; d = 2'-deoxy (DNA)
# Assays:
# Yap1 mRNA [1] = test: Antisense inhibition of human Yap1 in A-431 cells by cEt gapmers, single dose (Example 2, RTS4814); format: cell-based
# Method in brief: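 A-431 cells (5,000/well) received 2,000 nM oligonucleotide by free uptake for about 48 h. Yap1 mRNA was then quantified by RT-qPCR with primer probe set RTS4814, normalized to RIBOGREEN total RNA, and reported as % of untreated control; asterisked values mark oligos inside the amplicon.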
# Yap1 mRNA [2] = test: Dose-dependent inhibition of human Yap1 in A-431 cells (Example 8, 10,000 cells per well, RTS4814); format: cell-based; settings: free uptake, approximately 48 hours, RTS4814; for Yap1 mRNA, % UTC: A-431 cells, 10,000 cells per well; for IC50: A-431 cells, linear regression on log/linear plot
# Method in brief: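 A-431 cells (10,000/well) dosed with modified oligonucleotides by free uptake; Yap1 mRNA measured ~48 h later with primer-probe set RTS4814, normalized to total RNA (RIBOGREEN). Values are % of untreated control; IC50 from linear regression on log/linear plot.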
# [3] = Table 32, Yap1 mRNA, percent of untreated control, 3-10-3 cEt gapmers targeting SEQ ID NO.: 1, and 2
# [4] = Yap1 mRNA as percent of untreated control, A-431 cells, 3-10-3 cEt gapmers targeting SEQ ID NO.: 1, and 2, Table 30
# [5] = Table 33, Yap1 mRNA, percent of untreated control, 3-10-3 cEt gapmers targeting SEQ ID NO.: 1, and 2
# [6] = Table 18, A-431 cells, 5,000 cells per well, free uptake, 2,000 nM modified oligonucleotide, approx. 48 hours, RTS4814, normalized to RIBOGREEN, Yap1 mRNA as percent of untreated control
# [7] = Table 21, Yap1 mRNA, percent of untreated control, 3-10-3 cEt gapmers targeting SEQ ID NO.: 1 and 2
# [8] = Table 23, Yap1 mRNA as percent of untreated control, 3-10-3 cEt gapmers, single dose
# [9] = Table 20, Yap1 mRNA, percent of untreated control, 3-10-3 cEt gapmers targeting SEQ ID NO.: 1 and 2
# [10] = Table 24, Yap1 mRNA as percent of untreated control, 3-10-3 cEt gapmers targeting SEQ ID NO.: 1, and 2
substance,measurement,setting,value
1074610 (DNA kT*k[5mC]*kT*dA*dG*dT*dT*dA*d[5mC]*dA*dT*d[5mC]*dA*kT*k[5mC]*kT) [compound 1074610],YAP1 (% UTC),Yap1 mRNA [1]; [3],5 % UTC
same,"Yap1 mRNA, % UTC",Yap1 mRNA [2]; 31.3 nM,57 % UTC
same,"Yap1 mRNA, % UTC",Yap1 mRNA [2]; 125.0 nM,20 % UTC
same,"Yap1 mRNA, % UTC",Yap1 mRNA [2]; 500.0 nM,10 % UTC
same,"Yap1 mRNA, % UTC",Yap1 mRNA [2]; 2000.00 nM,7 % UTC
same,IC50,Yap1 mRNA [2],< 20 nM
1075824 (kG*kT*kA*dT*dT*dA*dG*dA*dG*dG*dT*dT*d[5mC]*k[5mC]*kA*kG; antisense) [compound 1075824],YAP1 (% UTC),Yap1 mRNA [1]; [4],3 % UTC
same,"Yap1 mRNA, % UTC",Yap1 mRNA [2]; 31.3 nM,33 % UTC
same,"Yap1 mRNA, % UTC",Yap1 mRNA [2]; 125.0 nM,10 % UTC
same,"Yap1 mRNA, % UTC",Yap1 mRNA [2]; 500.0 nM,5 % UTC
same,"Yap1 mRNA, % UTC",Yap1 mRNA [2]; 2000.00 nM,3 % UTC
same,IC50,Yap1 mRNA [2],< 20 nM
1075155 (kT*k[5mC]*kA*dT*dT*dA*dT*dA*dA*dT*dG*dG*dG*kA*kG*kG; antisense) [compound 1075155],YAP1 (% UTC),Yap1 mRNA [1]; [5],5 % UTC
same,"Yap1 mRNA, % UTC",Yap1 mRNA [2]; 31.3 nM,51 % UTC
same,"Yap1 mRNA, % UTC",Yap1 mRNA [2]; 125.0 nM,15 % UTC
same,"Yap1 mRNA, % UTC",Yap1 mRNA [2]; 500.0 nM,6 % UTC
same,"Yap1 mRNA, % UTC",Yap1 mRNA [2]; 2000.00 nM,4 % UTC
same,IC50,Yap1 mRNA [2],< 20 nM
1075699 (kG*kA*kT*dT*dT*dA*dT*dA*d[5mC]*dT*d[5mC]*dA*dG*kG*kT*kT; antisense) [compound 1075699],YAP1 (% UTC),Yap1 mRNA [1]; [5],4 % UTC
same,"Yap1 mRNA, % UTC",Yap1 mRNA [2]; 31.3 nM,26 % UTC
same,"Yap1 mRNA, % UTC",Yap1 mRNA [2]; 125.0 nM,6 % UTC
same,"Yap1 mRNA, % UTC",Yap1 mRNA [2]; 500.0 nM,3 % UTC
same,"Yap1 mRNA, % UTC",Yap1 mRNA [2]; 2000.00 nM,2 % UTC
same,IC50,Yap1 mRNA [2],< 20 nM
1074576 (DNA kA*kT*kG*d[5mC]*dA*d[5mC]*dA*dT*dT*dA*dT*dG*dA*kA*k[5mC]*k[5mC]) [compound 1074576],YAP1 (% UTC),Yap1 mRNA [1]; [4],7 % UTC
same,"Yap1 mRNA, % UTC",Yap1 mRNA [2]; 31.3 nM,69 % UTC
same,"Yap1 mRNA, % UTC",Yap1 mRNA [2]; 125.0 nM,41 % UTC
same,"Yap1 mRNA, % UTC",Yap1 mRNA [2]; 500.0 nM,14 % UTC
same,"Yap1 mRNA, % UTC",Yap1 mRNA [2]; 2000.00 nM,9 % UTC
same,IC50,Yap1 mRNA [2],100 nM
1074800 (k[5mC]*kA*kA*dA*dT*dA*dG*dT*dG*d[5mC]*dT*dT*dT*kG*kG*kA; antisense) [compound 1074800],YAP1 (% UTC),Yap1 mRNA [1]; [4],6 % UTC
same,"Yap1 mRNA, % UTC",Yap1 mRNA [2]; 31.3 nM,48 % UTC
same,"Yap1 mRNA, % UTC",Yap1 mRNA [2]; 125.0 nM,21 % UTC
same,"Yap1 mRNA, % UTC",Yap1 mRNA [2]; 500.0 nM,10 % UTC
same,"Yap1 mRNA, % UTC",Yap1 mRNA [2]; 2000.00 nM,7 % UTC
same,IC50,Yap1 mRNA [2],< 20 nM
1076464 (k[5mC]*kA*kT*dA*dT*dA*d[5mC]*dA*dA*dT*dT*d[5mC]*dT*kG*k[5mC]*k[5mC]; antisense) [compound 1076464],YAP1 (% UTC),Yap1 mRNA [1]; [4],2 % UTC
same,"Yap1 mRNA, % UTC",Yap1 mRNA [2]; 31.3 nM,36 % UTC
same,"Yap1 mRNA, % UTC",Yap1 mRNA [2]; 125.0 nM,10 % UTC
same,"Yap1 mRNA, % UTC",Yap1 mRNA [2]; 500.0 nM,3 % UTC
same,"Yap1 mRNA, % UTC",Yap1 mRNA [2]; 2000.00 nM,2 % UTC
same,IC50,Yap1 mRNA [2],< 20 nM
1074448 (kT*kA*kA*dT*dG*dA*dT*dA*dG*d[5mC]*dA*d[5mC]*dT*kA*kG*kG; antisense) [compound 1074448],YAP1 (% UTC),Yap1 mRNA [1]; [4],3 % UTC
same,"Yap1 mRNA, % UTC",Yap1 mRNA [2]; 31.3 nM,54 % UTC
same,"Yap1 mRNA, % UTC",Yap1 mRNA [2]; 125.0 nM,13 % UTC
same,"Yap1 mRNA, % UTC",Yap1 mRNA [2]; 500.0 nM,4 % UTC
same,"Yap1 mRNA, % UTC",Yap1 mRNA [2]; 2000.00 nM,3 % UTC
same,IC50,Yap1 mRNA [2],< 20 nM
1076516 (antisense k[5mC]*kA*kT*dA*dA*dA*d[5mC]*dA*dT*dG*dA*dG*dT*kG*kG*kT) [Compound 1076516],YAP1 (% UTC),Yap1 mRNA [1]; [6],8 % UTC
1074215 (antisense kG*k[5mC]*kT*d[5mC]*d[5mC]*dG*dG*d[5mC]*dG*dG*d[5mC]*dT*dT*kG*kA*kA) [Compound 1074215],YAP1 (% UTC),Yap1 mRNA [1]; [7],77 % UTC
1074443 (kT*k[5mC]*kA*dG*dA*d[5mC]*d[5mC]*dA*dG*dT*dA*dA*dA*kT*k[5mC]*kA; antisense) [Compound 1074443],YAP1 (% UTC),"Yap1 mRNA [1]; Table 25, Yap1 mRNA as percent of untreated control, 3-10-3 cEt gapmers targeting SEQ ID NO.: 1, and 2",7 % UTC
1075977 (kG*kA*kT*dT*dA*dA*dA*dA*dG*dT*d[5mC]*dG*dG*kG*k[5mC]*k[5mC]; antisense) [Compound 1075977],YAP1 (% UTC),Yap1 mRNA [1]; [8],73 % UTC
1074470 (k[5mC]*k[5mC]*k[5mC]*d[5mC]*d[5mC]*d[5mC]*dA*d[5mC]*d[5mC]*dG*dA*d[5mC]*d[5mC]*k[5mC]*kT*kG; antisense) [Compound 1074470],YAP1 (% UTC),Yap1 mRNA [1]; [9],69 % UTC
1074217 (antisense kG*kG*kA*dT*dT*dT*dG*dG*dG*d[5mC]*dT*d[5mC]*d[5mC]*kG*kG*k[5mC]) [Compound 1074217],YAP1 (% UTC),Yap1 mRNA [1]; [8],74 % UTC
1074986 (antisense k[5mC]*kT*kA*d[5mC]*dT*dG*dT*dA*dA*dT*d[5mC]*dA*d[5mC]*k[5mC]*kT*kT) [Compound 1074986],YAP1 (% UTC),Yap1 mRNA [1]; [10],78 % UTC
1075440 (antisense kA*kA*kA*dT*dT*dA*dT*dT*dA*dG*dT*dT*dG*kT*k[5mC]*kG) [compound 1075440],YAP1 (% UTC),Yap1 mRNA [1]; [4],28 % UTC
1074406 (antisense kA*kA*kA*dG*dT*dA*dT*d[5mC]*dT*dT*dG*d[5mC]*dT*kG*kG*kA) [Compound 1074406],YAP1 (% UTC),Yap1 mRNA [1]; [9],16 % UTC
716545 (kG*k[5mC]*kA*dT*dG*dT*dA*dT*dT*dT*dA*dA*dT*kA*kT*kG; antisense) [Compound 716545],YAP1 (% UTC),"Yap1 mRNA [1]; Table 5, A-431 cells, 5,000 cells per well, free uptake, 2,000 nM modified oligonucleotide, approx. 48 hours, RTS4814, normalized to RIBOGREEN, Yap1 mRNA relative to untreated control cells",91 % UTC
1074922 (antisense k[5mC]*kT*kT*dT*d[5mC]*d[5mC]*dA*d[5mC]*dT*d[5mC]*dA*dA*dG*kT*kT*kA) [Compound 1074922],YAP1 (% UTC),Yap1 mRNA [1]; [10],87 % UTC
716579 (kA*kT*kA*dG*dA*dG*dA*dT*dT*dT*dT*d[5mC]*d[5mC]*k[5mC]*kT*k[5mC]; antisense) [Compound 716579],YAP1 (% UTC),"Yap1 mRNA [1]; Table 6, A-431 cells, 5,000 cells per well, free uptake, 2,000 nM modified oligonucleotide, approx. 48 hours, RTS4814, normalized to RIBOGREEN, Yap1 mRNA relative to untreated control cells",84 % UTC
1075334 (kT*kT*kA*dA*dT*dA*dA*dT*d[5mC]*dT*dA*d[5mC]*d[5mC]*kA*kG*kT; antisense) [Compound 1075334],YAP1 (% UTC),Yap1 mRNA [1]; [9],60 % UTC
1075273 (antisense kA*kA*kA*dT*dT*dA*dT*dG*dG*dT*d[5mC]*dA*dG*kG*k[5mC]*kT) [Compound 1075273],YAP1 (% UTC),Yap1 mRNA [1]; [8],18 % UTC
1075121 (kA*kA*kA*dA*dT*dT*dA*dG*d[5mC]*d[5mC]*dT*dA*d[5mC]*k[5mC]*kA*k[5mC]; antisense) [compound 1075121],YAP1 (% UTC),"Yap1 mRNA [1]; Yap1 mRNA as percent of untreated control, A-431 cells, 3-10-3 cEt gapmers targeting SEQ ID NO.: 1, and 2, Table 31",40 % UTC
1074930 (antisense k[5mC]*kT*kA*dT*dA*d[5mC]*dA*dA*d[5mC]*dA*dG*dG*d[5mC]*k[5mC]*kT*kG) [compound 1074930],YAP1 (% UTC),Yap1 mRNA [1]; [3],84 % UTC
1075047 (antisense kT*kA*kA*dA*dA*dT*dT*dA*dG*dA*d[5mC]*dT*d[5mC]*k[5mC]*k[5mC]*k[5mC]) [Compound 1075047],YAP1 (% UTC),Yap1 mRNA [1]; [7],7 % UTC
1074184 (antisense kG*k[5mC]*k[5mC]*dG*dG*dT*dT*dG*dA*dG*dG*d[5mC]*dG*kG*k[5mC]*kG) [Compound 1074184],YAP1 (% UTC),"Yap1 mRNA [1]; Table 22, Yap1 mRNA as percent of untreated control, 3-10-3 cEt gapmers, single dose",100 % UTC
1075652 (kG*kT*kA*dT*dA*dT*dT*dA*d[5mC]*dA*dA*dT*d[5mC]*k[5mC]*k[5mC]*kA; antisense) [Compound 1075652],YAP1 (% UTC),Yap1 mRNA [1]; [6],40 % UTC
